# According to patent publication US8802597B2, “Herbicidal pyrimidines” (E I du Pont de Nemours and Company, priority 2003, dated 2014):
# Where two headings read alike, the source gives them in different places.
# Experiments:
# Assay in all cases: Test C pre/postemergence
# Format in all cases: in vivo
# [1] = test system: morningglory (Ipomoea coccinea); conditions: Ipomoea, pre-emergence, Preemergence, read-out: Plant response rating, Morningglory
# Method in brief: (§1)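 Visual injury ratings, 0 (no effect) to 100 (complete control), made 12 to 14 days after treatment by comparison with untreated controls. Greenhouse plants received test chemical in a surfactant-containing non-phytotoxic solvent, either preemergence on planted seeds or postemergence at the 1- to 4-leaf stage.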
# [2] = test system: lambsquarters (Chenopodium album); conditions: Chenopodium album; for pest or weed control at 31 g/ha: 31 g ai/ha; for pest or weed control at 62 g/ha: 62 g ai/ha; for pest or weed control at 125 g/ha: 125 g ai/ha; for pest or weed control at 250 g/ha: 250 g ai/ha
# Method in brief: as §1
# [3] = test system: Surinam grass (Brachiaria decumbens); conditions: Urochloa decumbens; for pest or weed control at 125 g/ha: 125 g ai/ha; for pest or weed control at 31 g/ha: 31 g ai/ha; for pest or weed control at 62 g/ha: 62 g ai/ha; for pest or weed control at 250 g/ha: 250 g ai/ha
# Method in brief: as §1
# [4] = test system: johnsongrass (Sorghum halepense); conditions: Sorghum halepense; for pest or weed control at 31 g/ha: 31 g ai/ha; for pest or weed control at 62 g/ha: 62 g ai/ha; for pest or weed control at 125 g/ha: 125 g ai/ha; for pest or weed control at 250 g/ha: 250 g ai/ha
# Method in brief: as §1
# [5] = test system: cocklebur (Xanthium strumarium); conditions: Xanthium strumarium; for pest or weed control at 31 g/ha: 31 g ai/ha; for pest or weed control at 62 g/ha: 62 g ai/ha; for pest or weed control at 125 g/ha: 125 g ai/ha; for pest or weed control at 250 g/ha: 250 g ai/ha
# Method in brief: as §1
# [6] = test system: giant foxtail (Setaria faberii); conditions: Setaria faberi; for pest or weed control at 125 g/ha: 125 g ai/ha; for pest or weed control at 31 g/ha: 31 g ai/ha; for pest or weed control at 62 g/ha: 62 g ai/ha; for pest or weed control at 250 g/ha: 250 g ai/ha
# Method in brief: as §1
# [7] = post-emergence, Postemergence, scale 0 to 100 (0 no effect, 100 complete control), read-out: Lambsquarters plant response rating
# [8] = pre-emergence, Preemergence, scale 0 to 100, 0 no effect, 100 complete control, read-out: Plant response rating, Lambsquarters
# [9] = pre-emergence, Preemergence, scale 0 to 100, read-out: Plant response rating, Lambsquarters
# [10] = post-emergence, Postemergence, scale 0 to 100 (0 no effect, 100 complete control), read-out: Surinam Grass plant response rating
# [11] = pre-emergence, Preemergence, scale 0 to 100, 0 no effect, 100 complete control, read-out: Plant response rating, Surinam Grass
# [12] = pre-emergence, Preemergence, scale 0 to 100, read-out: Plant response rating, Surinam Grass
# [13] = post-emergence, Postemergence, scale 0 to 100 (0 no effect, 100 complete control), read-out: Johnsongrass plant response rating
# [14] = pre-emergence, Preemergence, scale 0 to 100, 0 no effect, 100 complete control, read-out: Plant response rating, Johnsongrass
# [15] = pre-emergence, Preemergence, scale 0 to 100, read-out: Plant response rating, Johnsongrass
# [16] = post-emergence, Postemergence, scale 0 to 100 (0 no effect, 100 complete control), read-out: Cocklebur plant response rating
# [17] = pre-emergence, Preemergence, scale 0 to 100, 0 no effect, 100 complete control, read-out: Plant response rating, Cocklebur
# [18] = pre-emergence, Preemergence, scale 0 to 100, read-out: Plant response rating, Cocklebur
# [19] = post-emergence, Postemergence, scale 0 to 100 (0 no effect, 100 complete control), read-out: Foxtail, Giant plant response rating
# [20] = pre-emergence, Preemergence, scale 0 to 100, 0 no effect, 100 complete control, read-out: Plant response rating, Foxtail, Giant
# [21] = pre-emergence, Preemergence, scale 0 to 100, read-out: Plant response rating, Foxtail, Giant
structure (smiles),measurement,setting,value
COC(=O)c1nc(C(C)C)nc(N)c1Br [Compound 3],pest or weed control at 31 g/ha,"[1]; 31 g ai/ha, scale 0 to 100, 0 no effect, 100 complete control",0%
same,pest or weed control at 62 g/ha,"[1]; 62 g ai/ha, scale 0 to 100, 0 no effect, 100 complete control",0%
same,pest or weed control at 125 g/ha,"[1]; 125 g ai/ha, scale 0 to 100",20%
same,pest or weed control at 250 g/ha,"[1]; 250 g ai/ha, scale 0 to 100",35%
same,pest or weed control at 31 g/ha,"[2]; post-emergence, Postemergence, read-out: Plant response rating (scale of 0 to 100), Lambsquarters",75%
same,pest or weed control at 62 g/ha,[2]; [7],90%
same,pest or weed control at 125 g/ha,[2]; [7],90%
same,pest or weed control at 250 g/ha,"[2]; post-emergence, Postemergence, scale 0 to 100, read-out: Plant response rating, Lambsquarters",100%
same,pest or weed control at 31 g/ha,[2]; [8],0%
same,pest or weed control at 62 g/ha,[2]; [8],0%
same,pest or weed control at 125 g/ha,[2]; [9],0%
same,pest or weed control at 250 g/ha,[2]; [9],80%
same,pest or weed control at 125 g/ha,[3]; [10],0%
same,pest or weed control at 31 g/ha,"[3]; post-emergence, Postemergence, read-out: Plant response rating (scale of 0 to 100), Surinam Grass",0%
same,pest or weed control at 62 g/ha,[3]; [10],0%
same,pest or weed control at 250 g/ha,"[3]; post-emergence, Postemergence, scale 0 to 100, read-out: Plant response rating, Surinam Grass",0%
same,pest or weed control at 31 g/ha,[3]; [11],0%
same,pest or weed control at 62 g/ha,[3]; [11],0%
same,pest or weed control at 125 g/ha,[3]; [12],0%
same,pest or weed control at 250 g/ha,[3]; [12],0%
same,pest or weed control at 31 g/ha,"[4]; post-emergence, Postemergence, read-out: Plant response rating (scale of 0 to 100), Johnsongrass",0%
same,pest or weed control at 62 g/ha,[4]; [13],0%
same,pest or weed control at 125 g/ha,[4]; [13],0%
same,pest or weed control at 250 g/ha,"[4]; post-emergence, Postemergence, scale 0 to 100, read-out: Plant response rating, Johnsongrass",0%
same,pest or weed control at 31 g/ha,[4]; [14],0%
same,pest or weed control at 62 g/ha,[4]; [14],0%
same,pest or weed control at 125 g/ha,[4]; [15],0%
same,pest or weed control at 250 g/ha,[4]; [15],0%
same,pest or weed control at 31 g/ha,"[5]; post-emergence, Postemergence, read-out: Plant response rating (scale of 0 to 100), Cocklebur",60%
same,pest or weed control at 62 g/ha,[5]; [16],65%
same,pest or weed control at 125 g/ha,[5]; [16],75%
same,pest or weed control at 250 g/ha,"[5]; post-emergence, Postemergence, scale 0 to 100, read-out: Plant response rating, Cocklebur",90%
same,pest or weed control at 31 g/ha,[5]; [17],0%
same,pest or weed control at 62 g/ha,[5]; [17],30%
same,pest or weed control at 125 g/ha,[5]; [18],55%
same,pest or weed control at 250 g/ha,[5]; [18],70%
same,pest or weed control at 125 g/ha,[6]; [19],0%
same,pest or weed control at 31 g/ha,"[6]; post-emergence, Postemergence, read-out: Plant response rating (scale of 0 to 100), Foxtail, Giant",0%
same,pest or weed control at 62 g/ha,[6]; [19],0%
same,pest or weed control at 250 g/ha,"[6]; post-emergence, Postemergence, scale 0 to 100, read-out: Plant response rating, Foxtail, Giant",0%
same,pest or weed control at 31 g/ha,[6]; [20],0%
same,pest or weed control at 62 g/ha,[6]; [20],0%
same,pest or weed control at 125 g/ha,[6]; [21],0%
same,pest or weed control at 250 g/ha,[6]; [21],0%
